Calls of active or inactive are those of the source.
Assays:
Cytochrome P450 2D6 = Cytochrome P450 2D6 (Homo sapiens, UniProt P10635);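 also: CYP2D6 member of a cytochrome P450 panel assay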
Cytochrome P450 2C9 = Cytochrome P450 2C9 (Homo sapiens, UniProt P11712)
H4 = assay: Luminescence Cell-Based Dose Response HTS to Identify Activators of 5'UTR Stem-Loop Driven Prion Protein mRNA Translation in H4 Neuroglioblastoma Cells. [Related pubchem assays: 1829 (Project Summary), 1814 (Primary HTS)]; assay type: functional; details: Homo sapiens
[1] = Luminescence Cell-Based Dose Response HTS to Identify Activators of Luciferase Translation or Activity in H4 […] Cells. [Related pubchem assays: 1829 (Project Summary), 1814 (Primary HTS)]; assay type: functional
[2] = viability of uninfected HEp-2 cells – cell-based, HTS, cytotoxicity control for RSV inhibitor project, dose response (AID 2410); assay type: functional; details: human respiratory syncytial virus
[3] = Luminescence Cell-Based Dose Response HTS to Identify Inhibitors of 5'UTR Stem-Loop Driven Prion Protein mRNA Translation in H4 Neuroglioblastoma Cells. [Related pubchem assays: 1827 (Project Summary), 1813 (Primary HTS)]; assay type: functional
Cytochrome P450 2C19 = Cytochrome P450 2C19 (Homo sapiens, UniProt P33261); assay: Cytochrome panel assay with activity outcomes. Panel member name: p450-cyp2c19 Compounds with AC50 equal or less than 10 uM are considered active; assay type: functional
Sequence of Cytochrome P450 2C19 (P33261 whole entry): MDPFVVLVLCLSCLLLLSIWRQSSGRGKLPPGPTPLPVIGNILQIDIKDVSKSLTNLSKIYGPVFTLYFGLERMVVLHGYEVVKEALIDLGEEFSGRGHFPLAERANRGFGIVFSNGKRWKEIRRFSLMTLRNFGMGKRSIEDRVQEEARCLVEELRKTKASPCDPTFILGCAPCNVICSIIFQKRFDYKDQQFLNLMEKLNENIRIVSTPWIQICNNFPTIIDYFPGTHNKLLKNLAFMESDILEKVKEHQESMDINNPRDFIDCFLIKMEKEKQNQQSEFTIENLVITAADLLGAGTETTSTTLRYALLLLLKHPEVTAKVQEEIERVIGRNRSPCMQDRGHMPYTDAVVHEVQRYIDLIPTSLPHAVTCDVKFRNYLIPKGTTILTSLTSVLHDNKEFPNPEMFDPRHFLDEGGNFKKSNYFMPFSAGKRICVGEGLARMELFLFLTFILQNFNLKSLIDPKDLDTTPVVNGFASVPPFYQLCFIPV

Cytochrome P450 1A2 = target: T1, Cytochrome P450 1A2 (Homo sapiens, UniProt P05177);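 also: PubChem cytochrome P450 panel assay, CYP1A2 panel member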
T1 sequence (P05177 whole entry): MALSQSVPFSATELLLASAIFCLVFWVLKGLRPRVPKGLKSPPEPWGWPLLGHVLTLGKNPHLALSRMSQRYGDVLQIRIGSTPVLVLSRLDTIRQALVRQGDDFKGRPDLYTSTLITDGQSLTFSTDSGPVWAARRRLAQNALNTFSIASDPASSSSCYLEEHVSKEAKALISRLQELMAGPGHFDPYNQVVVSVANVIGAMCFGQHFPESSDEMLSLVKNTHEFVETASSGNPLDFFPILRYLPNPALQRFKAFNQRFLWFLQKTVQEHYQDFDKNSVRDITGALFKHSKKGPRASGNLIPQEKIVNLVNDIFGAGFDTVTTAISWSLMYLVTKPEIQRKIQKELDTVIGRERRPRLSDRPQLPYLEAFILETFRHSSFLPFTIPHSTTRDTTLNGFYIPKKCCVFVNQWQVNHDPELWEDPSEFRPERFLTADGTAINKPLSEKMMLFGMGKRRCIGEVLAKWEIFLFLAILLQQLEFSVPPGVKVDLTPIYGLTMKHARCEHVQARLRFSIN

Cytochrome P450 3A4 = Cytochrome P450 3A4 (Homo sapiens, UniProt P08684);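 also: CYP3A4 tested as one member of a cytochrome P450 panel screen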
Sequence of Cytochrome P450 3A4 (P08684 whole entry): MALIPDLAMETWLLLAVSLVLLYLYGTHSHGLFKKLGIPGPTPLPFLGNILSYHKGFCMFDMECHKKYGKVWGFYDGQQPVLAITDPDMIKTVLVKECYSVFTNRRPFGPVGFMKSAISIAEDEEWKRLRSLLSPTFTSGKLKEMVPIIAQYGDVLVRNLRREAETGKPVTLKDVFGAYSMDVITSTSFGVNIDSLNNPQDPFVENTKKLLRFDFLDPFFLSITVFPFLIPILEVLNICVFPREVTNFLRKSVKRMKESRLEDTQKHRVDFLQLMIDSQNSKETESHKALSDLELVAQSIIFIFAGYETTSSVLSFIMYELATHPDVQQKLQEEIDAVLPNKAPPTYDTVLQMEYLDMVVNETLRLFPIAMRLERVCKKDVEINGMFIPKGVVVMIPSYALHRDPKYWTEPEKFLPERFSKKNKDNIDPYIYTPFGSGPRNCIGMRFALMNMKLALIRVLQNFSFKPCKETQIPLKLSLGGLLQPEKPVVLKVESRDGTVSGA

[4] = target: T2, Heat shock factor protein 1 (Mus musculus, UniProt P38532); assay: decrease of HSF1-responsive luciferase luminescence – cell-based, NIH3T3, dose retest, confirmation (AID 2382); assay type: functional;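 also: NIH3T3 fibroblasts with HSF1-driven luciferase reporter stressed by proteasome inhibitor MG132; luminescence from HSF1-driven luciferase expression after 8 hours of MG132 stress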
T2 sequence (P38532 whole entry): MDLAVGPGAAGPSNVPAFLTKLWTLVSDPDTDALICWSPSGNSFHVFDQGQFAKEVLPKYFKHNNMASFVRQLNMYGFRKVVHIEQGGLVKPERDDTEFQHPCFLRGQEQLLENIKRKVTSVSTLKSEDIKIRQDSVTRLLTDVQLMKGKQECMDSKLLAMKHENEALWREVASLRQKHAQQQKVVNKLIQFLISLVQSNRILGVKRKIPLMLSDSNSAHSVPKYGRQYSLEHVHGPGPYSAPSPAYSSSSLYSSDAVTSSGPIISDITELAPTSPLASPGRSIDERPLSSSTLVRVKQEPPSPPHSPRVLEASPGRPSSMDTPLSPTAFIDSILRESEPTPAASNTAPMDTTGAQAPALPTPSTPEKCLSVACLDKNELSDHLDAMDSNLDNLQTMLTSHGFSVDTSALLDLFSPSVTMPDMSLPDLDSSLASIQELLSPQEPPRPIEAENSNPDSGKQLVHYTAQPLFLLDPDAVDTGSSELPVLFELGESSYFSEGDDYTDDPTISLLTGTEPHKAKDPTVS

Sequence of Cytochrome P450 2C9 (P11712 whole entry): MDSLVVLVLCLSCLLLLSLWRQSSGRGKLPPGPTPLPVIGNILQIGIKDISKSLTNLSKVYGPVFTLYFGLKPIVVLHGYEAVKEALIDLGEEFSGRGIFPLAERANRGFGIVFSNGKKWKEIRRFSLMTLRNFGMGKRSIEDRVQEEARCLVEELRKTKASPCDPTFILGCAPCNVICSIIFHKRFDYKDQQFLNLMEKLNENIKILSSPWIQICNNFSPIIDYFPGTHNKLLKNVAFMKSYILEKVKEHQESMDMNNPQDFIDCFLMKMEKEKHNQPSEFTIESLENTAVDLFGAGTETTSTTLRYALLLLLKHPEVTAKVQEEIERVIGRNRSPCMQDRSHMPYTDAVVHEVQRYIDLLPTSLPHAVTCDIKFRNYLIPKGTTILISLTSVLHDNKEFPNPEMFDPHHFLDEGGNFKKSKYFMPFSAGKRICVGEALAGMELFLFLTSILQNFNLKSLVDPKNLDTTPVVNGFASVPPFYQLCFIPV
Sequence of Cytochrome P450 2D6 (P10635 whole entry): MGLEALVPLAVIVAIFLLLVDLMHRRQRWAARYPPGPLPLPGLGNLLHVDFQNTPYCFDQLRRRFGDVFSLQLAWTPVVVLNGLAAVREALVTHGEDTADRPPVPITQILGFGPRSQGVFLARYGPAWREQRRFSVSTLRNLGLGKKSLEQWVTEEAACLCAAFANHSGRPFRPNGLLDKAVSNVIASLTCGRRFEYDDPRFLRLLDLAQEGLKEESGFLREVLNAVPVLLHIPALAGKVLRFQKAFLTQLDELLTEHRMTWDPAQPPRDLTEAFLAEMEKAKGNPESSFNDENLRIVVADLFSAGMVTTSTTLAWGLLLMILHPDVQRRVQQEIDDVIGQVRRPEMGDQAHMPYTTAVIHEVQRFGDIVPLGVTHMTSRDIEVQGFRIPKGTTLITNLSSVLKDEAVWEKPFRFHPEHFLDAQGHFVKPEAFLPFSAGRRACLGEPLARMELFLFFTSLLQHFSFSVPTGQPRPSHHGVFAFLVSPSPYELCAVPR

Cc1cccc(Cn2cnc3c(NS(C)(=O)=O)c(C)c(C)cc32)c1
AC50 (Cytochrome P450 2D6): 35.5 µM (inconclusive)
AC50 (Cytochrome P450 2C9): 1.26 µM (inconclusive)

S=C(c1ccc(-c2ccc(Cl)cc2Cl)o1)N1CCCCC1
EC50 (H4): 1.97 µM (active)
EC50 [1]: 50 µM (active)

CCOC(=O)c1c(C)[nH]c(C2=NN=C(NC3CC3)SC2)c1C
CC50 [2]: 28.1 µM (active)

COc1cc(/C=C2/C(=N)N3N=C(CC(=O)N4CCOCC4)SC3=NC2=O)ccc1OCc1ccccc1
EC50 (H4): 14.5 µM (active)
EC50 [1]: 10.5 µM (active)

Cc1ccc2nc(-c3ccc(NC(=O)COC(=O)c4ccc([N+](=O)[O-])o4)cc3)sc2c1
EC50 [3]: 10.9 µM (inconclusive)

Cc1noc(C)c1C(=O)N1CCC[C@@]2(CCN(c3ccccc3)C2)C1
AC50 (Cytochrome P450 2C19): 25.1 µM (inconclusive)
AC50 (Cytochrome P450 2C9): 20 µM (inconclusive)
AC50 (Cytochrome P450 1A2): 25.1 µM (inconclusive)

Cc1noc(C)c1-c1ccc2ncnc(Nc3ccc(F)cc3)c2c1
AC50 (Cytochrome P450 2D6): 39.8 µM (inconclusive)
AC50 (Cytochrome P450 3A4): 15.8 µM (inconclusive)

CCOC(=O)C1=C(NC(=S)NC(=O)c2ccccc2)c2ccccc2CC1(C)CC (stereo unspecified)
CC50 [2]: 12.5 µM (active)

Cc1csc(NC(=O)C2=COCCO2)n1
EC50 (H4): > 120 µM (not active)
EC50 [1]: 3.11 µM (active)

Cc1ccccc1CSc1nccn1-c1ccccc1
AC50 (Cytochrome P450 2D6): 17.8 µM (inconclusive)

CC(=O)Nc1ccc(O)c(-c2nc3ccccc3s2)c1
EC50 (H4): 22.5 µM (active)
EC50 [1]: 21.2 µM (active)

COc1cc(C(=O)Nc2ccccc2NC(=O)c2cc(OC)c(OC)c(OC)c2)cc(OC)c1OC
EC50 [4]: > 195 µM (not active)

CC(C)NC(=O)COC(=O)C1CSC2(c3ccc(Br)cc3)CCC(=O)N12 (stereo unspecified)
EC50 [4]: > 195 µM (not active)

COc1ccccc1-c1ccc2ncnc(N(C)C)c2c1
AC50 (Cytochrome P450 2D6): 12.6 µM (inconclusive)

CCn1c(SCc2nc3ccccc3[nH]2)nnc1-c1ccc(OC)cc1
AC50 (Cytochrome P450 2D6): 20 µM (inconclusive)

CC1CCN(C(S)=NCCc2ccccc2)CC1
EC50 (H4): 31.3 µM (active)
EC50 [1]: 0.102 µM (active)

CCCNC(=O)Nc1ccc2c(c1)nc(C)n2C
AC50 (Cytochrome P450 2C19): 0.562 µM (inconclusive)
AC50 (Cytochrome P450 1A2): 15.8 µM (inconclusive)

O=C(CN1c2ccccc2Sc2ccccc21)NNC(=O)Nc1ccc(Cl)cc1
CC50 [2]: > 50 µM (active)

CN(C)C(=O)c1ccc(-c2ccc3ncnc(NCc4cccs4)c3c2)cc1
AC50 (Cytochrome P450 2D6): 20 µM (inconclusive)

c1ccc(CCCNc2nnnc3ccccc23)cc1
AC50 (Cytochrome P450 2C19): 3.16 µM (inconclusive)

O=C(COC(=O)COc1ccccc1)Nc1ccc(OC(F)(F)F)cc1
AC50 (Cytochrome P450 2C19): 39.8 µM (inconclusive)

c1ccc2c(c1)-c1nc3ccccc3cc1[C@H]2N1CCOCC1
AC50 (Cytochrome P450 2C19): 3.16 µM (inconclusive)
AC50 (Cytochrome P450 2C9): 6.31 µM (inconclusive)

CN(NC1OC(=O)c2ccccc21)c1ccc(C(F)(F)F)cc1[N+](=O)[O-] (stereo unspecified)
EC50 [4]: > 195 µM (not active)

CCc1nn(C(C)C(=O)N2CCN(c3ccccc3)CC2)c(=O)c2cc3occc3n12 (stereo unspecified)
CC50 [2]: 20.4 µM (active)

Nc1ncnc2[nH]c(N3CCN(C(=O)c4ccccc4)CC3)nc12
EC50 [4]: > 195 µM (not active)

COc1ccc2nc(O)c(CNc3ccccc3)cc2c1
CC50 [2]: 34.4 µM (active)

CCCOc1ccc(-c2n[nH]c(S)n2)cc1
CC50 [2]: 25.1 µM (active)

CC1Cc2ccccc2N1C(=O)Cn1c(=O)cc(O)c2ccccc21 (stereo unspecified)
AC50 (Cytochrome P450 2C19): 22.4 µM (inconclusive)
AC50 (Cytochrome P450 2D6): 39.8 µM (inconclusive)

CCCNC(=O)c1ccc(COc2ccc(CCC)cc2OC)o1
EC50 [4]: > 195 µM (not active)

CCOC(=O)N1CCN(c2nc(-c3cccs3)nc3ccccc23)CC1
CC50 [2]: > 50 µM (active)

COc1cccc(Nc2cc(C)c3ccccc3n2)c1
CC50 [2]: 32 µM (active)

Cc1cc(-c2ccc(C)c(S(=O)(=O)NCCC(C)N3CCCCCC3)c2)on1 (stereo unspecified)
EC50 [4]: > 195 µM (not active)

CCOC(=O)c1c(-c2ccccc2)cn2ccccc12
AC50 (Cytochrome P450 2D6): 3.16 µM (inconclusive)
AC50 (Cytochrome P450 3A4): 12.6 µM (inconclusive)

CC1(C)Cc2c(C#N)c(NCCO)nc(-c3ccco3)c2CO1
EC50 [4]: > 195 µM (not active)

O=C(NCc1ccccc1C(F)(F)F)C1CC(c2ccc(C(F)(F)F)cc2)=NO1 (stereo unspecified)
EC50 [4]: > 195 µM (not active)

COc1ccc(NC(=O)C2C(c3ccccc3)C2(Cl)Cl)cc1 (stereo unspecified)
CC50 [2]: 17.7 µM (active)

COc1ccc([C@H]2CC(=O)C=C(c3ccc(Cl)c(C(F)(F)F)c3)C2)cc1
CC50 [2]: 12.9 µM (active)

CC(CCc1ccccc1)NC(=O)CCNS(=O)(=O)c1ccccc1 (stereo unspecified)
EC50 [4]: > 195 µM (not active)

COc1ccc2c(C)cc(N3CCOCC3)nc2c1
AC50 (Cytochrome P450 2C19): 31.6 µM (inconclusive)

CNc1ncncc1-c1ccccc1C(F)(F)F
AC50 (Cytochrome P450 2C19): 39.8 µM (inconclusive)
AC50 (Cytochrome P450 2D6): 39.8 µM (inconclusive)

C/C=C/c1ccc(OCC(=O)NCc2ccccc2OC)c(OC)c1
CC50 [2]: 40.4 µM (active)

CC/C(O)=C(\C#N)c1nnc2n1CCCCC2
AC50 (Cytochrome P450 2C19): 1 µM (inconclusive)
AC50 (Cytochrome P450 1A2): 14.1 µM (inconclusive)

O=C(COC(=O)/C=C/c1ccc(C(F)(F)F)cc1)NC1CC1
EC50 [4]: > 195 µM (not active)

c1ccc2c(NC3CC3)nc(-c3ccoc3)nc2c1
AC50 (Cytochrome P450 2C19): 25.1 µM (inconclusive)

Cn1c(CSc2nc3cc(Br)ccc3[nH]2)nc2ccccc21
CC50 [2]: > 50 µM (active)

COc1ccc(NC(=O)C(F)(F)F)cc1OC
AC50 (Cytochrome P450 2C19): 22.4 µM (inconclusive)
AC50 (Cytochrome P450 2C9): 39.8 µM (inconclusive)

COC(=O)c1ccccc1NC(=O)c1ccc(F)cc1
AC50 (Cytochrome P450 2C19): 25.1 µM (inconclusive)

C/C(=N/NC(=O)CNC(=O)c1ccccn1)c1ccc([N+](=O)[O-])cc1
EC50 [4]: > 195 µM (not active)

CCO/C(O)=C1\C(C)=NC2=C(C(=O)CCC2)C1c1cn(Cc2ccc(Cl)cc2Cl)nc1-c1ccccc1 (stereo unspecified)
CC50 [2]: 30.6 µM (active)

COc1ccc(/C=N/N(C)C2=NCCN2)c(OC)c1OC
EC50 [4]: > 195 µM (not active)

Cc1ccc(/N=C/c2ccc[nH]2)c(O)c1
EC50 [4]: > 195 µM (not active)

CCOC(=O)C(/C=N/CC(=O)O)=C(\O)OCC
AC50 (Cytochrome P450 2D6): 39.8 µM (inconclusive)

Nc1nc2ccc(Cl)cc2c2nc(-c3ccco3)nn12 [CGS-15943]
AC50 (Cytochrome P450 2D6): 12.6 µM (inconclusive)
AC50 (Cytochrome P450 2C9): 31.6 µM (inconclusive)
AC50 (Cytochrome P450 3A4): 7.94 µM (inconclusive)

Source: ChEMBL document CHEMBL1201862, “PubChem BioAssay data set” (2004)
